Test results: ChEMBL document CHEMBL3351791, “Some molecular targets for antihyperlipidemic drug research” (Eur J Med Chem, 2014)

Legend:
[1] = target: T1, Cholesteryl ester transfer protein (Homo sapiens, UniProt P11597); experiment: Inhibition of CETP-mediated [3H]-CE from HDL to LDL in human plasma
T1 sequence (P11597 whole entry): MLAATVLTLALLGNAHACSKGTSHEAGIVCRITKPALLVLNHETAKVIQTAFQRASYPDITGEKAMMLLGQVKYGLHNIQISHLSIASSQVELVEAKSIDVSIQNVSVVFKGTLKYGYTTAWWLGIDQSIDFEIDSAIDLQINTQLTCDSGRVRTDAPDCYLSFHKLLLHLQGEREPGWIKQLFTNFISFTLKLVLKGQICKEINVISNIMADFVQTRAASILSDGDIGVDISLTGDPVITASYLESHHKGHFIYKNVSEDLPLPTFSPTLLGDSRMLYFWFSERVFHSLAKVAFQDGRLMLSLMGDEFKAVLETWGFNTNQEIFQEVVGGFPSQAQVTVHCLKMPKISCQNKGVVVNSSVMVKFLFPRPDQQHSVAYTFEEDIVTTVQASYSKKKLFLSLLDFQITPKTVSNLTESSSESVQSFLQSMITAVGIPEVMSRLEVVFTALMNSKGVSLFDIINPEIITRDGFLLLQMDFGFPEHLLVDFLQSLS

[2] = tested on: Mus musculus; experiment: Ex vivo inhibition of human CETP overexpressed in po dosed double transgenic mouse harboring human apoA1 assessed as elevation of HDL-cholesterol level measured at 8 hrs post dose; format: functional

Row | Structure (SMILES) | IC50 [1] [nM] | ED50 [2] [mg/kg]
1 | NCC(O)C(F)(F)F (configuration not stated) | 600 | 
2 | Cc1cc(C)c2c(c1)[C@@H](N(Cc1cc(C(F)(F)F)cc(C(F)(F)F)c1)c1nnn(C)n1)CCCN2C[C@H]1CC[C@H](C(=O)O)CC1 [EVACETRAPIB] |  | < 5
